In publication PMC4474691, “Leukemia-Associated Mutations in Nucleophosmin Alter Recognition by CRM1: Molecular Basis of Aberrant Transport” (PLoS ONE, 2015):
Read-outs that look alike come from different tables or passages of the source. Values belong to the substance of their own block, whether it stands above or below them.

Columns and labels:
CRM1 = settings: cited from earlier work
Text: Two sequence motifs in the core domain of NPM (residues 42–61 and 94–102) (Fig 1) have been investigated as candidate NESs. In addition, we have detected a further putative NES in the C-terminal region (see below). However, it is still unclear to what extent any of these sequences represents NPM physiological NESs.

wild type CRM1 = test: Fluorescence anisotropy binding assay, wild type CRM1; set-up: species or system mouse; settings: TFP-PKI 50 nM, 25°C, 20 mM Tris/HCl pH 7.4, wild type CRM1, compared with CRM1^HA
Text: For recombinant production in E. coli, we subcloned wild type NPM, as well as mutants A and E, as N-terminal (His)10 –ZZ tagged constructs in pTG-A20 vector [22]. The original clone of wild type mouse CRM1, N-terminally fused to a His—ZZ tag was a kind gift of Dr. Dirk Görlich (Max Planck Institute for Biophysical Chemistry, Göttingen). We generated the high affinity CRM1 mutant (CRM1^HA) from a clone provided by Dr. Murray Stewart (MRC Laboratory of Molecular Biology, Cambridge). […]
Fluorescence anisotropy binding assays
To estimate CRM1 binding affinities for NES motifs we monitored binding with a fluorescence-polarization assay based on previously described approaches. The increase in fluorescence anisotropy of TFP/YFP when the TFP/YFP-NES construct (50 nM) binds to 0–60 μM CRM1 (either CRM^HA or wild type) was recorded at 25°C with a 8100 SLM-Aminco spectrofluorometer in buffer 20 mM Tris/HCl, pH 7.4, 50 mM NaCl, 5 mM DTT, 2 mM MgCl2. […]
Fig 4 Binding of CRM1 to TFP-NES constructs. […] Fraction bound was calculated from the relative increase in fluorescence anisotropy of TFP (λexc 463 nm, λem 500 nm). […]
We next used the TFP-(NES) constructs to monitor CRM1^HA binding to each motif, using the change in fluorescence anisotropy upon complex formation as a readout (Fig 4B), as previously described. […]

CRM1^HA [1] = biological target: T1, CRM1^HA (Mus musculus, UniProt Q6P5F9, L431A/V430A/V432A); test: Ni-NTA chromatography of TFP-NES / CRM1^HA complex formation; format: binding; settings: 2.5 mg His-tagged TFP construct on 1 mL Histrap FF, 1 mL CRM1^HA 18 μM; 50 mM Tris/HCl pH 8.0, 500 mM NaCl; SDS-PAGE
T1 construct: His-ZZ (cleaved yes); made in house; host or cells: Escherichia coli BL21-CodonPlus (DE3)
Text: Although the relative potency of the NESs acquired by the different NPM mutants has been compared using an in vivo export assay, their CRM1-binding affinities have not yet been determined. We cloned the NESs of mutant A and E as C-terminal fusions to a teal fluorescent protein (TFP) (Fig 4A). As a reference, we generated an equivalent construct with the well-characterized NES of protein kinase inhibitor (PKI). We first tested the binding of CRM1^HA to the TFP-NES constructs using Ni-NTA chromatography. His-tagged TFP constructs were bound to the Ni-NTA column, and an excess of untagged CRM1^HA was then injected (S4 Fig).
Supplementary file pone.0130610.s004.tif: S4 Fig TFP-NES / CRM1^HA complex formation shown by Ni-NTA chromatography. 2.5 mg of the His-tagged TFP construct were loaded on a 1 mL Histrap FF (GE Healthcare) in buffer 50 mM Tris/HCl, pH 8.0, 500 mM NaCl, 1 mM TCEP, 2 mM MgCl2, 5% glycerol, containing 15 mM imidazole. After washing with the same buffer, 1 mL of CRM1^HA at 18 μM was injected at 0.1 mL/min flow rate. Unbound CRM1^HA was collected, and then bound proteins were eluted with 2 M imidazole. SDS-PAGE of elution fractions: Unbound (free) CRM1^HA and the fraction eluted with imidazole, containing both the His-tagged TFP construct along with bound CRM1^HA. (TIF) Click here for additional data file.

CRM1^HA [2] = biological target: T1, CRM1^HA; test: Isothermal titration calorimetry, CRM1^HA / NES; format: binding; settings: ITC, NES ligand (35–180 μM) titrated onto CRM1^HA (2–14 μM), 20°C, 20 mM HEPES pH 7.4, 50 mM NaCl, 1 mM TCEP, 1 mM MgCl2; independent binding sites model; read-out: KD
Description: Isothermal titration calorimetry (ITC)
ITC measurements were carried out using a VIP-ITC MicroCalorimeter (MicroCal, Inc., Northampton, MA). TFP and YFP constructs, as well as CRM1^HA, were dialyzed in a buffer containing 20 mM HEPES, pH 7.4, 50 mM NaCl, 1 mM TCEP, 1 mM MgCl2, and degassed prior to the experiment. Untagged peptides (AS: QDLCLAVEEVSLRK, AL: EAIQDLCLAVEEVSLRK, ES: QDLWQSLAQVSLRK and EL: EAIQDLWQSLAQVSLRK), N-acetylated and 95% pure, were purchased from Proteogenix (Schiltigheim, France) and resuspended in the ITC buffer. Measurements were performed at 20°C. TFP-NES, YFP-NES or NES peptides at 35–180 μM were titrated onto CRM1^HA at 2–14 μM. Injections of 6 μL were performed at 320 seconds interval (the first injection always was of 1 μL and is not considered in data analysis). To determine the thermodynamic parameters of NPM / importin interaction, importin α, importin Δα or importin α/β at 45–60 μM were titrated onto NPM (1–1.2 μM pentamer) in 50 mM Tris/HCl, pH 7.5, 100 mM NaCl, 2 mM TCEP, and 10% glycerol. […] “Reverse” titrations, where 20–30 μM NPM was titrated onto 7–10 μM of the different importins were also performed and yielded similar results.
The reaction heat of each injection is related to the calorimetric enthalpy of binding, ΔH^0. The binding isotherms, ΔH^0 vs. molar ratio, were analyzed with an independent binding sites model using MicroCal Origin software. The fit of the binding curve yields the binding constant KA (KD = 1/KA) and the enthalpy ΔH^0 of the binding reaction. The Gibbs free energy of binding ΔG^0 and the entropy ΔS^0 are determined from the basic thermodynamic expressions: ΔG^0 = -RTlnKA = ΔH^0−TΔS^0, where R and T are the gas constant and the absolute temperature, respectively.
Fig 5 Analysis of CRM1^HA/TFP-NES interaction by ITC. Isothermal titration of CRM1^HA with TFP-mutE(NES). […] The titration of negative control TFP-Cter (180 μM) onto CRM1^HA (14 μM) (circles) is also shown for comparison.

CRM1^HA [3] = biological target: T1, CRM1^HA; settings: previously described, CRM1^HA binding to YFP-PKI(NES); cited from earlier work
Text: We next used the TFP-(NES) constructs to monitor CRM1^HA binding to each motif, using the change in fluorescence anisotropy upon complex formation as a readout (Fig 4B), as previously described.

importin α/β = importin α/β binding of nucleoplasmin; cited from earlier work
Text: Our study has explored the molecular determinants of both NPM export (CRM1/NES) and import (importin α/β/NLS). […] This lower affinity could be related to the fact that NPM NLS includes one basic residue less in the major cluster of the bipartite motif than NP NLS. […] This, together with the very low affinity of CRM1 for wild type NPM and significant avidity for nucleolar comp ...

T1 sequence (Q6P5F9 1-1062 V430A/L431A/V432A limits assumed): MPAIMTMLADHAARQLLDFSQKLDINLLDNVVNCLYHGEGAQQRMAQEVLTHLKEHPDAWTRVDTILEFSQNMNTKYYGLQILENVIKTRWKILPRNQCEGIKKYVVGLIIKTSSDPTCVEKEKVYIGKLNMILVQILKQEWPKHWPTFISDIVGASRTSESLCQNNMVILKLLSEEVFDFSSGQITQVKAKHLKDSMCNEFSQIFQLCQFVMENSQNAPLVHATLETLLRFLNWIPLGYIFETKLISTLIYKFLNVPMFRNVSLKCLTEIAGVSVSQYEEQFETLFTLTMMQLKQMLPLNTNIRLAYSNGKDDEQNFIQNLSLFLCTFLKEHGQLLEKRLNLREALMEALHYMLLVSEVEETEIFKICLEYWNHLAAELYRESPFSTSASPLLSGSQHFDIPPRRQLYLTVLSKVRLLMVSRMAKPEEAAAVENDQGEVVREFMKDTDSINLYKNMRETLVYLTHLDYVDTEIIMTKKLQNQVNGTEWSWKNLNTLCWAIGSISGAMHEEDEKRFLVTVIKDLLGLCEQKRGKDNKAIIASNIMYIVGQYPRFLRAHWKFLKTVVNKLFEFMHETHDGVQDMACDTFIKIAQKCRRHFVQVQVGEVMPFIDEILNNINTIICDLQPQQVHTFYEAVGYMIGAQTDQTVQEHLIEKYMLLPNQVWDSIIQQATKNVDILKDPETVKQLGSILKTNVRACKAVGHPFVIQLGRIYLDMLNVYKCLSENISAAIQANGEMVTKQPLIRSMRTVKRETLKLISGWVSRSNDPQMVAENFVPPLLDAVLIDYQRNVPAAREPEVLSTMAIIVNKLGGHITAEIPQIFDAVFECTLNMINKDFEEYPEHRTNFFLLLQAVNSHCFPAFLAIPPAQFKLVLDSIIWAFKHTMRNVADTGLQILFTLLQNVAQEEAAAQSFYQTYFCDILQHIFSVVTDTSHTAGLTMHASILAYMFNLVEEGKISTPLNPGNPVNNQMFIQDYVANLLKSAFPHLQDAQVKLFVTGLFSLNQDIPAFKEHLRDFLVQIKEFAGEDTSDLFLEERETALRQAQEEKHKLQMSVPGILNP

Substance: residues 42–61: candidate NES motif in the core domain of NPM (LSLRTVSLGAGAKDELHIVE; UniProt P06748 42-61, looked up, fragment)
binding to CRM1 (CRM1): no binding to CRM1

binding of wild type CRM1 (wild type CRM1): much weaker than that of CRM1^HA
Substance: LALKLAGLDI [TFP-PKI(NES)]
CRM1^HA binding in Ni-NTA chromatography (CRM1^HA [1]): stronger than its binding to TFP- mutE(NES)

Kd (CRM1^HA [2]): 0.018 ± 0.003 µM
Substance: YFP-PKI(NES): previously described YFP-PKI(NES) construct (LALKLAGLDI; fusion to YFP (carrier omitted); linker stated to be 2 residues longer than in TFP construct) [reference compound]
Kd (CRM1^HA [3]): 0.025 µM

Substance: nucleoplasmin: homologous protein nucleoplasmin
Kd (importin α/β): 0.057 µM
